Values of other authors as cited in patent US12514855B2 (IRR, Inc., priority 2020, dated 2026).

Columns and labels:
[1] = in vivo
[2] = in vivo; remark: listed apart in the source
H1 receptor = H1 receptor (Homo sapiens, UniProt P35367); conditions: in an acidic pH
[3] = tested on: histamine induced wheal and flare
[4] = with warfarin, theophylline, digoxin, terfenadine, oral contraceptives, or prednisone
[5] = airway epithelial cells from nose and lung

Chain of H1 receptor (P35367 whole entry): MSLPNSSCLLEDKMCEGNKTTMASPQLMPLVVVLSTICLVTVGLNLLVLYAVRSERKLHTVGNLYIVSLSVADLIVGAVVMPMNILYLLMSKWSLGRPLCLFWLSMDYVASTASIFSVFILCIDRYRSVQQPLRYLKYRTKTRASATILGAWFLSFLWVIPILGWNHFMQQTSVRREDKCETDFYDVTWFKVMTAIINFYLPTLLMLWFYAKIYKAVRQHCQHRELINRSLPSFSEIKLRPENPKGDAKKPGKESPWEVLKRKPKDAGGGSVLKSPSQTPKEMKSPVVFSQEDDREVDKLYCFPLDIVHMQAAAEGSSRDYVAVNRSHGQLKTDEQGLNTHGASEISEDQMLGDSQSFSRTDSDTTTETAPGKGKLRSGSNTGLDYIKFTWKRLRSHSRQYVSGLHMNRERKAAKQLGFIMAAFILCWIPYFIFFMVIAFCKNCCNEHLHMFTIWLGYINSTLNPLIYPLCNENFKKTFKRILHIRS

O=C(O)COCCN1CCN([C@H](c2ccccc2)c2ccc(Cl)cc2)CC1 [levocetirizine]
time to steady state level [1]: 40 h
dose that can be safely administered [2]: up to 30 mg/day
HRV viral replication (human rhinovirus (HRV); [5]): inhibit
HRV-induced ICAM-1 (human rhinovirus (HRV); [5]): inhibit
HRV-induced cytokine expression (human rhinovirus (HRV); [5]): inhibit
levels of HRV-induced increases in ICAM-1 (human rhinovirus (HRV); levocetirizine added before, after, or at the time of the HRV infection): reduced
receptor affinity over first generation mepyramine (H1 receptor): 5 ×
potency through histamine induced wheal and flare data ([3]; compared with modern generation antihistamines): most potent of the five modern generation antihistamines
effectiveness versus fexofenadine ([3]; levocetirizine 5 mg per day vs fexofenadine 180 mg per day): more effective than fexofenadine

CC(C)(O)c1ccccc1CC[C@@H](SCC1(CC(=O)O)CC1)c1cccc(/C=C/c2ccc3ccc(Cl)cc3n2)c1 [montelukast]
drug interactions [4]: no drug interactions
